Experimental data from patent publication US10183013B2, “Cyclic sulfonamide containing derivatives as inhibitors of hedgehog signaling pathway” (NantBioScience, Inc., priority 2012, dated 2019).

Each molecule was assayed on Hedgehog signalling (Gli-bla NIH3T3 cells, mShh stimulated) (assay: Hedgehog signalling inhibition assay (Gli-Bla reporter assay in NIH 3T3 cells)). Conditions: Mus musculus, NIH3T3, 24 h; read-out: EC50.
Format: cell-based
Description: Hedgehog signalling inhibition assays. The following table 2 represents the average EC50 values for particular compounds of the inventions. Gli-bla NIH3T3 cells (7500 cells/well) were plated the day prior to the assay in a 384-well and 96-format in complete growth medium. […] Cells were stimulated with mShh for 24 hours and then loaded with LiveBLAzer™-FRET B/G Substrate for 3 hours. Emission values at 460 nm and 530 nm were obtained using a standard fluorescence plate reader and the 460/530 Ratios plotted for each treatment (n=4 for each data point).
J. Cancer, 2011, 30(7):472-81).
Further: mShh 400 ng/ml.

Structure (SMILES) | EC50 [nM]
O=C(Nc1ccc(Cl)c(-c2ccccn2)c1)c1ccc(N2CCCS2(=O)=O)cc1 [Example 84] | < 10
O=C(Nc1ccc(Cl)c(-c2ccccn2)c1)c1ccc(N2CCOCS2(=O)=O)cc1Cl [Example 85, 2-chloro-N-(4-chloro-3-(pyridin-2-yl)phenyl)-4-(3,3-dioxido-1,3,4-oxathiazinan-4-yl)benzamide] | < 10
O=C(Nc1ccc(Cl)c(-c2nccc3ccccc23)c1)c1ccc(N2CCCS2(=O)=O)cc1 [Example 86] | 28000
O=C(Nc1ccc(Cl)c(-c2ccc3ccccc3n2)c1)c1ccc(N2CCCS2(=O)=O)cc1 [Example 87] | 3000
O=C(Nc1ccc(Cl)c(-c2ccc3ncccc3n2)c1)c1ccc(N2CCCS2(=O)=O)cc1 [Example 88] | 10000
O=C(Nc1ccc(Cl)c(-c2ncc3ccccc3n2)c1)c1ccc(N2CCCS2(=O)=O)cc1 [Example 89] | 14000
O=C(Nc1ccc(Cl)c(-c2ccc3cnccc3n2)c1)c1ccc(N2CCCS2(=O)=O)cc1 [Example 90] | 12000
O=C(Nc1ccc(Cl)c(-c2ccc3ccccc3n2)c1)c1ccc(N2CCCCS2(=O)=O)cc1 [Example 93] | < 10
O=C(Nc1ccc(Cl)c(-c2nccc3ccccc23)c1)c1ccc(N2CCCCS2(=O)=O)cc1 [Example 94] | < 10
O=C(Nc1ccc(Cl)c(-c2ncc3ccccc3n2)c1)c1ccc(N2CCCCS2(=O)=O)cc1 [Example 95] | < 10
O=C(Nc1ccc(Cl)c(-c2ccc3cnccc3n2)c1)c1ccc(N2CCCCS2(=O)=O)cc1 [Example 96] | < 10
O=C(Nc1ccc(Cl)c(-c2ccc3ncccc3n2)c1)c1ccc(N2CCCCS2(=O)=O)cc1 [Example 97] | < 10
O=C(Nc1ccc(Cl)c(-c2nccc3ccccc23)c1)c1ccc(N2CCCCS2(=O)=O)cc1Cl [Example 98] | < 10
O=C(Nc1ccc(Cl)c(-c2ccc3ccccc3n2)c1)c1ccc(N2CCCCS2(=O)=O)cc1Cl [Example 99] | < 10
O=C(Nc1ccc(Cl)c(-c2ncc3ccccc3n2)c1)c1ccc(N2CCCCS2(=O)=O)cc1Cl [Example 100] | < 10
O=C(Nc1ccc(Cl)c(-c2ccc3cnccc3n2)c1)c1ccc(N2CCCCS2(=O)=O)cc1Cl [Example 101] | < 10
O=C(Nc1ccc(Cl)c(-c2ccc3ncccc3n2)c1)c1ccc(N2CCCCS2(=O)=O)cc1Cl [Example 102] | < 10
O=C(Nc1ccc(Cl)c(-c2nccc3ncccc23)c1)c1ccc(N2CCCCS2(=O)=O)cc1Cl [Example 103] | < 10
O=C(Nc1ccc(Cl)c(-c2nccc3ccccc23)c1)c1ccc(N2CCOCS2(=O)=O)cc1Cl [Example 104, 2-chloro-N-(4-chloro-3-(isoquinolin-1-yl)phenyl)-4-(3,3-dioxido-1,3,4-oxathiazinan-4-yl)benzamide] | < 10
O=C(Nc1ccc(Cl)c(-c2nccc3ncccc23)c1)c1ccc(N2CCOCS2(=O)=O)cc1Cl [Example 105, 2-chloro-N-(4-chloro-3-(1,6-naphthyridin-5-yl)phenyl)-4-(3,3-dioxido-1,3,4-oxathiazinan-4-yl)benzamide] | < 10
O=C(Nc1ccc(Cl)c(-c2ccc3ncccc3n2)c1)c1ccc(N2CCOCS2(=O)=O)cc1Cl [Example 106, 2-chloro-N-(4-chloro-3-(1,5-naphthyridin-2-yl)phenyl)-4-(3,3-dioxido-1,3,4-oxathiazinan-4-yl)benzamide] | < 10
O=C(Nc1ccc(Cl)c(-c2ccc3cnccc3n2)c1)c1ccc(N2CCOCS2(=O)=O)cc1Cl [Example 107, 2-chloro-N-(4-chloro-3-(1,6-naphthyridin-2-yl)phenyl)-4-(3,3-dioxido-1,3,4-oxathiazinan-4-yl)benzamide] | < 10
O=C(Nc1ccc(Cl)c(-c2nccc3ccccc23)c1)c1ccc(N2CCOCS2(=O)=O)cc1 [Example 108, N-(4-chloro-3-(isoquinolin-1-yl)phenyl)-4-(3,3-dioxido-1,3,4-oxathiazinan-4-yl)benzamide] | 11000
O=C(Nc1ccc(Cl)c(-c2nccc3ncccc23)c1)c1ccc(N2CCOCS2(=O)=O)cc1 [Example 109, N-(4-chloro-3-(1,6-naphthyridin-5-yl)phenyl)-4-(3,3-dioxido-1,3,4-oxathiazinan-4-yl)benzamide] | < 10
Cc1ccc(NC(=O)c2ccc(N3CCCS3(=O)=O)cc2Cl)cc1-c1nccc2ccccc12 [Example 111] | < 10
O=C(Nc1ccc(Cl)c(-c2nccc3ncccc23)c1)c1ccc(N2CCCS2(=O)=O)cc1Cl [Example 112] | < 10
O=C(Nc1ccc(Cl)c(-c2nccc3ncccc23)c1)c1ccc(N2CCCS2(=O)=O)c(Cl)c1 [Example 113] | < 10

Structure (SMILES) | EC50 [nM]
O=C(Nc1ccc(Cl)c(-c2nccc3ccccc23)c1)c1ccc(N2CCCS2(=O)=O)c(Cl)c1 [Example 114] | < 10
O=C(Nc1ccc(Cl)c(-c2nccc3ccccc23)c1)c1ccc(N2CCCCS2(=O)=O)c(Cl)c1 [Example 115] | < 10
O=C(Nc1ccc(Cl)c(-c2nccc3ncccc23)c1)c1ccc(N2CCOCS2(=O)=O)cc1F [Example 116, N-(4-chloro-3-(1,6-naphthyridin-5-yl)phenyl)-4-(3,3-dioxido-1,3,4-oxathiazinan-4-yl)-2-fluorobenzamide] | < 10
O=C(Nc1ccc(Cl)c(-c2nccc3ccccc23)c1)c1ccc(N2CCOCS2(=O)=O)cc1F [Example 117, N-(4-chloro-3-(isoquinolin-1-yl)phenyl)-4-(3,3-dioxido-1,3,4-oxathiazinan-4-yl)-2-fluorobenzamide] | 16000
O=C(Nc1ccc(Cl)c(NC(=O)c2ccccc2)c1)c1ccc(N2CCCS2(=O)=O)c(F)c1 [Example 118] | < 10
O=C(Nc1ccc(Cl)c(NC(=O)c2cccnc2)c1)c1ccc(N2CCCS2(=O)=O)c(F)c1 [Example 119] | < 10
O=C(Nc1cc(NC(=O)c2ccc(N3CCCS3(=O)=O)cc2Cl)ccc1Cl)c1cccc(Cl)c1 [Example 120] | < 10
O=C(Nc1ccc(Cl)c(NC(=O)c2cccc(Cl)c2)c1)c1ccc(N2CCCS2(=O)=O)c(F)c1 [Example 121] | < 10
O=C(Nc1cc(NC(=O)c2ccc(N3CCOCS3(=O)=O)cc2Cl)ccc1Cl)c1ccccc1 [Example 122, N-(3-benzamido-4-chlorophenyl)-2-chloro-4-(3,3-dioxido-1,3,4-oxathiazinan-4-yl)benzamide] | < 10
O=C(Nc1ccc(Cl)c(-c2ccccn2)c1)c1ccc(N2CCOCS2(=O)=O)cc1F [Example 123, N-(4-chloro-3-(pyridin-2-yl)phenyl)-4-(3,3-dioxido-1,3,4-oxathiazinan-4-yl)-2-fluorobenzamide] | < 10
O=C(Nc1cc(NC(=O)c2ccc(N3CCOCS3(=O)=O)cc2F)ccc1Cl)c1ccccc1 [Example 124, N-(3-benzamido-4-chlorophenyl)-4-(3,3-dioxido-1,3,4-oxathiazinan-4-yl)-2-fluorobenzamide] | < 10
O=C(Nc1cc(NC(=O)c2ccc(N3CCOCS3(=O)=O)cc2Cl)ccc1Cl)c1cccc(F)c1 [Example 125, 2-chloro-N-(4-chloro-3-(3-fluorobenzamido)phenyl)-4-(3,3-dioxido-1,3,4-oxathiazinan-4-yl)benzamide] | < 10
O=C(Nc1cc(NC(=O)c2ccc(N3CCOCS3(=O)=O)cc2Cl)ccc1Cl)c1ccc(Cl)cc1 [Example 126, 2-chloro-N-(4-chloro-3-(4-chlorobenzamido)phenyl)-4-(3,3-dioxido-1,3,4-oxathiazinan-4-yl)benzamide] | < 10
O=C(Nc1cc(NC(=O)c2ccc(N3CCOCS3(=O)=O)cc2Cl)ccc1Cl)c1nccs1 [Example 127, N-(2-chloro-5-(2-chloro-4-(3,3-dioxido-1,3,4-oxathiazinan-4-yl)benzamido)phenyl)thiazole-2-carboxamide] | < 10
O=C(Nc1ccc(Cl)c(NC(=O)c2cccc(Cl)c2)c1)c1ccc(N2CCCCS2(=O)=O)cc1 [Example 128] | < 10
O=C(Nc1ccc(Cl)c(NC(=O)c2cccc(Cl)c2)c1)c1ccc(N2CCCS2(=O)=O)cc1 [Example 129] | < 10
O=C(Nc1cc(NC(=O)c2ccc(N3CCOCS3(=O)=O)cc2Cl)ccc1Cl)c1cccc(Cl)c1 [Example 130] | < 10
O=C(Nc1ccc(Cl)c(Oc2cccc(Cl)c2)c1)c1ccc(N2CCCS2(=O)=O)cc1Cl [Example 131] | < 10
O=C(Nc1ccc(Cl)c(NC(=O)c2cccc(Cl)c2)c1)c1ccc(N2CCCS2(=O)=O)c(Cl)c1 [Example 132] | < 10
O=C(Nc1ccc(Cl)c(NC(=O)c2ccccc2Cl)c1)c1ccc(N2CCOCS2(=O)=O)cc1Cl [Example 133, 2-chloro-N-(4-chloro-3-(2-chlorobenzamido)phenyl)-4-(3,3-dioxido-1,3,4-oxathiazinan-4-yl)benzamide] | < 10
O=C(Nc1cc(NC(=O)c2ccc(N3CCCS3(=O)=O)cc2Cl)ccc1Cl)c1ccccc1 [Example 134] | < 10
O=C(Nc1cc(NC(=O)c2ccc(N3CCCS3(=O)=O)cc2Cl)ccc1Cl)c1cccnc1 [Example 135, N-(2-chloro-5-(2-chloro-4-(1,1-dioxidoisothiazolidin-2-yl)benzamido)phenyl) nicotinamide] | < 10
O=C(Nc1cc(NC(=O)c2ccc(N3CCOCS3(=O)=O)cc2Cl)ccc1Cl)c1cccnc1 [Example 136] | < 10
O=C(Nc1ccc(Cl)c(Oc2cccc(Cl)c2)c1)c1ccc(N2CCOCS2(=O)=O)cc1Cl [Example 137] | < 10
O=C(Nc1ccc(Cl)c(Oc2cccc(Cl)c2)c1)c1ccc(N2CCCS2(=O)=O)cc1 [Example 138] | < 10
O=C(Nc1ccc(Cl)c(Oc2cccc(Cl)c2)c1)c1ccc(N2CCCS2(=O)=O)c(F)c1 [Example 139] | < 10
CC(=O)Nc1cc(NC(=O)c2ccc(N3CCCS3(=O)=O)cc2Cl)ccc1Cl [Example 140] | 1000
